Among the data in the METLIN SMRT retention time set (Domingo-Almenara et al. 2019) are RP-LC retention time values, retold here.

Structures are written as SMILES.

This data set is described as follows: gradient 5% acetonitrile 3 min, to 50% in 2 min, to 85% in 15 min, held 3 min, 100 µL/min. Particulars: column: Zorbax Extend-C18 2.1 x 50 mm; eluents: water / acetonitrile, 0.1% formic acid. In outline: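 Retention times of pure standards were taken from adduct peaks that were selected by computer and manually inspected. Over 3 months, mixtures of ~100 molecules were run by HPLC–quadrupole time-of-flight mass spectrometry in positive and negative ionization mode. The Zorbax Extend-C18 column (2.1 × 50 mm, 1.8 μm) ran at 100 μL/min in water and acetonitrile, each containing 0.1% formic acid, with 40 μL dead volume and 900 μL dwell volume.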
Consider `CCc1nc2cc(-c3noc(C(C)NC(=O)c4ccccc4)n3)ccc2o1` (stereo not given), for which the RP-LC retention time came out at 916 s.

For `CCn1c(=O)sc2cc(S(=O)(=O)N3CCC(C(=O)Nc4ccccc4OC)CC3)ccc21`, the RP-LC retention time worked out at 917 s.

Regarding `CC(NC(=O)C1=CCN(Cc2ccccc2)CC1)c1ccccc1` (stereo not given), the RP-LC retention time came to 639 s.

With `O=C(Nc1cccc(C(F)(F)F)c1)N1CCCC1c1nncn1C1CCCC1` (stereo not given), the RP-LC retention time was 765 s.

`O=C(Cn1c(=O)c2cccn2c2ccc(F)cc21)NC1CC1` showed an RP-LC retention time of 685 s.

Consider `O=C(Nc1ccc(N2CCCCS2(=O)=O)cc1)OCc1ccccc1`, for which the RP-LC retention time is 769 s.

`c1cc(CN2CCCCC2c2nncn2CC2CC2)co1` (stereo not given) gave an RP-LC retention time of 561 s.

For the molecule `CCNc1nc(NC(C)(C)C)nc(-n2cnc(SC)n2)n1`, the RP-LC retention time is 873 s.

In turn, `COc1ccc2c(c1)C1(CCN(C(=O)COc3ccccc3)C1)C(=O)N2` (stereo not given) came in with an RP-LC retention time of 733 s.

In the case of `COc1cccc(C(=O)N2CCc3c(c(-c4nc(C5CC5)no4)nn3C)C2)c1`, the RP-LC retention time was determined as 800 s.

In turn, `COc1ccc(-c2noc(CN3C(=O)COc4ccc(C(C)(C)C)cc43)n2)cc1OC` returned an RP-LC retention time of 1120 s.

`Cc1ccc(CNC(=O)Cn2nc(C)c3sc(-c4ccccc4)nc3c2=O)cc1C` had an RP-LC retention time of 968 s.

In turn, `O=C(N[C@@H]1CN(c2ccncn2)C[C@H]1CO)c1ccc2c(c1)OCO2` had an RP-LC retention time of 578 s.

For `COCCNC(=O)c1cc2c(s1)N(C)CCC2`, the RP-LC retention time stood at 703 s.

With `CCOC(=O)c1c(C)[nH]c(CCC(=O)NCc2cccs2)c1C`, the RP-LC retention time came to 746 s.

In turn, `CCN(CC)C(=O)c1ccc2c(c1)N(CC(=O)Nc1cc(C)cc(C)c1)C(=O)CS2` displayed an RP-LC retention time of 858 s.

Molecule `O=C(C1CCN(S(=O)(=O)c2ccc3[nH]c(=O)ccc3c2)CC1)N1CCN(c2ccccc2F)CC1` gave an RP-LC retention time of 754 s.

`CS(=O)(=O)N1CCC(OC2CCN(C(=O)Nc3ccccc3Cl)CC2)CC1` had an RP-LC retention time of 785 s.

`COc1ccc(Cl)cc1C(=O)NCc1c(C)nc2sc(C)nn12` registered an RP-LC retention time of 673 s.

As to `O=C(NC1CCCCCCC1)C1CCCN(C(=O)c2cc(-c3ccncc3)n[nH]2)C1` (stereo not given), the RP-LC retention time is 646 s.

`Cc1onc(-c2ccccn2)c1C(=O)NCCCN1CCN(C2CCCCC2)CC1` yielded an RP-LC retention time of 582 s.

For the molecule `O=C(NC1CCCC1)C1CCN(Cc2noc(-c3ccc(F)cc3)n2)CC1`, the RP-LC retention time is 647 s.

`Cc1ccc2c(c1)N(S(C)(=O)=O)CCC(C(=O)NCc1ccc(Cl)cc1)O2` (stereo not given) came in with an RP-LC retention time of 954 s.

Regarding `O=C(NC1CCCCCC1)C1CC(=O)N(CCc2c[nH]c3ccc(Cl)cc23)C1` (stereo not given), the RP-LC retention time stood at 871 s.

In the case of `Cc1nc2ccccc2n1Cc1nnc2sc(-c3cccnc3)nn12`, the RP-LC retention time is 550 s.

For `O=C(Nc1cc(F)cc(F)c1)NC1CCN(c2ccc(F)cc2)C1=O` (stereo not given), the RP-LC retention time stood at 895 s.

`Cc1sc2ccn(C)c(=O)c2c1C(=O)NC1CCCCCC1` yielded an RP-LC retention time of 804 s.

Regarding `CCCCOC(=O)C1=C(C)NC(=O)NC1c1ccc(OCCC)c(OC)c1` (stereo not given), the RP-LC retention time turned out to be 884 s.

Turning to `COc1ccccc1NC(=O)C1CCCN(S(=O)(=O)c2cc(-c3noc(C)n3)cs2)C1` (stereo not given), the RP-LC retention time stood at 964 s.

Regarding `Cc1nc(-c2ccc(N3CCN(C(=O)c4cc5ccccc5[nH]4)CC3)nc2)sc1C`, the RP-LC retention time came to 924 s.

`CC(C)N1CCN(C(=O)c2csc(C(=O)NC3CCCC3)n2)CC1` registered an RP-LC retention time of 590 s.

With `COc1ccc2c(c1)C1(CCN(C(=O)c3ccccc3Br)C1)C(=O)N2` (stereo not given), the RP-LC retention time was determined as 750 s.

As for `N#CCCN(CCC#N)c1ccc(/C=C2\N=C(c3cc([N+](=O)[O-])ccc3Cl)OC2=O)cc1`, the RP-LC retention time worked out at 1010 s.

For `CC(C)n1c(CN2CCOCC2)nc2ccccc21`, the RP-LC retention time was determined as 556 s.

On to `CCOC(=O)CNC(=O)Nc1ccc2nc(N3CCOCC3)cc(C)c2c1`, for which the RP-LC retention time turned out to be 582 s.

On to `CN1CCN(c2ccccc2NC(=O)C2CCCN(c3ncnc4c3nc3n4CCCCC3)C2)CC1` (stereo not given), for which the RP-LC retention time was 635 s.

Take `CCOc1ccc(C2c3[nH]c4ccccc4c3CCN2C(=O)CCC2CCCC2)cc1` (stereo not given): the RP-LC retention time amounted to 1460 s.

In turn, `Cc1noc(C)c1CC(=O)N1CCCn2cc(-c3ccccc3F)nc21` registered an RP-LC retention time of 710 s.

`O=C1NCC/C1=C\c1ccc(C(F)(F)F)cc1` returned an RP-LC retention time of 718 s.

For the molecule `COC(=O)c1cccc(C(=O)NC2CCN(C(=O)c3cc(-c4cccs4)[nH]n3)CC2)c1`, the RP-LC retention time was determined as 733 s.

Regarding `CN1CC[C@@]2(C)c3cc(OC(=O)Nc4ccccc4)ccc3N(C)[C@@H]12`, the RP-LC retention time stood at 718 s.

`Cc1cccn2cc(-c3cccc(NS(=O)(=O)c4ccc(Br)cc4)c3)nc12` returned an RP-LC retention time of 700 s.

`CC1CCN(c2nnc(-n3cccc3CN3CCN(c4ccccn4)CC3)s2)CC1`: the RP-LC retention time was found to be 658 s.

Molecule `Cc1nc2c(ccc3nc(NC(=O)NC4CCCC4)sc32)s1` yielded an RP-LC retention time of 785 s.

The molecule `O=C(NCCN1CCc2ccccc2C1)C1CCN(c2nnc3ccccn23)CC1` returned an RP-LC retention time of 563 s.

`Cc1ccc(CNC(=O)c2[nH]c(C)c(S(=O)(=O)N3CCCC3)c2C)cc1` gave an RP-LC retention time of 851 s.

On to `CCN1CCC2(CC1)N=C(c1ccc(F)cc1)CC(c1cc(Cl)ccc1O)N2` (stereo not given), for which the RP-LC retention time was determined as 635 s.

Take `CCn1cnc2cc(-c3noc(C(NC(=O)c4ccco4)C(C)C)n3)ccc21` (stereo not given): the RP-LC retention time is 666 s.

`COc1cccc2sc(N3CCc4ccccc4C3)nc12` returned an RP-LC retention time of 1000 s.

In turn, `C#C[C@]1(O)CCC2C3CCC4=CC(=O)CCC4C3C(=C)CC21CC` (stereo not given in full) yielded an RP-LC retention time of 991 s.

`Cc1ccc(NC(=O)N2CCC(c3nc(C(=O)N4CCOCC4)c(C)o3)CC2)c(C)c1` had an RP-LC retention time of 709 s.

Molecule `CC(Cc1ccco1)NC(=O)c1ccc2ccnc(N3CCN(c4ccc(F)cc4)CC3)c2c1` (stereo not given) yielded an RP-LC retention time of 829 s.

The molecule `COc1ccc(N(C)C(=O)c2nc(C)n(C3CCN(S(C)(=O)=O)CC3)c2C)cc1` gave an RP-LC retention time of 600 s.

`COc1ccc(-c2nc3cnccn3c2Nc2ccc(C(N)=O)cc2)cc1` returned an RP-LC retention time of 612 s.

As for `Cc1cc(F)ccc1N1C(=O)CN(S(=O)(=O)c2ccccc2)CC1(C)C(=O)NC1CCCC1` (stereo not given), the RP-LC retention time amounted to 928 s.

Turning to `COC(=O)c1ccccc1NC(=O)Cn1cnc2c(sc3nc(-c4ccccc4)ccc32)c1=O`, the RP-LC retention time is 1110 s.

In turn, `Cc1ccc(-c2noc(-c3ccccc3S(=O)(=O)NC3CCCC3)n2)cc1` yielded an RP-LC retention time of 1300 s.

Molecule `COc1ccc(NC(=O)c2ccccc2NC(=O)C2CCN(C(=O)C(C)(C)C)CC2)cc1` yielded an RP-LC retention time of 868 s.

The molecule `COc1cccc(-c2nc(-c3ccc4c(c3)nc(C)c(=O)n4C)no2)c1` yielded an RP-LC retention time of 843 s.

`CSc1ccc(-c2nc3cccc(C)n3c2Nc2ccccc2C)cc1` gave an RP-LC retention time of 808 s.

`CC(C)Oc1ccc(CN2CCn3c(nn(CC4CC4)c3=O)C2)cc1` yielded an RP-LC retention time of 761 s.

In turn, `O=C(CCC1CCCN(C(=O)Nc2ccccc2)C1)NCc1cccc(F)c1` (stereo not given) yielded an RP-LC retention time of 806 s.

For `Cc1ncoc1C(=O)N1CCOc2ccc(N(C)C)cc2C1`, the RP-LC retention time is 572 s.

Consider `COC(=O)CNC(=O)N1CCCCC1c1nc(CCOCC2CC2)no1` (stereo not given), for which the RP-LC retention time was found to be 711 s.

For `CCc1nnc2nc(N3CCN(C(=O)COc4ccc(F)cc4)CC3)cc(C)n12`, the RP-LC retention time is 621 s.

In turn, `CS(=O)(=O)Nc1cccc(NC(=O)c2ccc(N3CCCC3)nn2)c1` returned an RP-LC retention time of 598 s.

In turn, `Cc1ccc(CNC(=O)C2CCCN(c3nnc(C)c4c(C)n(-c5ccc(C)cc5)nc34)C2)cc1` (stereo not given) came in with an RP-LC retention time of 800 s.

With `COc1cccc(NC(=O)NCCn2c(C(F)(F)F)nc3cccnc32)c1`, the RP-LC retention time amounted to 698 s.

The molecule `O=S(=O)(c1ccc(-c2cnc(C3CCC3)o2)s1)N1CCN(c2ccccn2)CC1` came in with an RP-LC retention time of 767 s.

`O=C(CN1CCc2nc(NC(=O)C3CC3)sc2C1)Nc1ccccc1C(F)(F)F` had an RP-LC retention time of 620 s.

With `Cc1ccc(Cn2c(=O)n(CCNC(=O)C3CCOC3)c3ncccc32)cc1` (stereo not given), the RP-LC retention time was 710 s.

`Cc1nnc(C2CC3(CCN(CCc4ccccc4)CC3)CN2CCc2ccccc2)o1` (stereo not given): the RP-LC retention time was 666 s.

`Cc1c(-c2ccnc(N3CCN(Cc4ccccc4)CC3)n2)cnc2nc(-c3ccc(Cl)cc3)nn12` showed an RP-LC retention time of 796 s.

`Cc1nc2ccc(N)nc2nc1C` registered an RP-LC retention time of 594 s.

The molecule `Clc1ccc(CNc2nnc(N3CCOCC3)c3ccccc23)cc1` showed an RP-LC retention time of 693 s.

As for `Cc1ccccc1CNC(=O)C1CCCN1S(=O)(=O)c1cc2c(cc1Cl)NC(=O)CO2` (stereo not given), the RP-LC retention time was 786 s.

The molecule `CC1Cc2ccc(CNC(=O)NC(C)(C)C)cc2N1C(=O)c1ccccc1` (stereo not given) displayed an RP-LC retention time of 853 s.

For `CCc1nc(-c2nnn(-c3ccccc3)c2C)no1`, the RP-LC retention time is 863 s.

`CC(=O)Nc1ccc(NC(=O)c2cccc(N3C(=O)NC4CC3(C)Oc3ccc(Cl)cc34)c2)cc1` (stereo not given): the RP-LC retention time was 754 s.

As to `COC(=O)c1ccc(Cl)cc1NC(=O)COc1nc(C)nc2ccccc12`, the RP-LC retention time worked out at 920 s.
